One test deals with T1, Ba/F3 ETV6-FGFR4 cells (Homo sapiens, UniProt P22455).
T1 construct: fused on or other part: N-terminal part of ETV6 (TEL), the oligomerising partner that makes the FGFR4 kinase constitutively active; P41212 (Transcription factor ETV6)
The experiment in a line: Inhibition of cell proliferation (CCK-8), Ba/F3 ETV6-FGFR4 cells. The test is classed as cell-based. As to conditions: 72 hours of incubation, read-out: Ba/F3 ETV6-FGFR4 IC50. Summed up:
(§1)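 Ba/F3 cells expressing ETV6-FGFR4 or ETV6-FGFR4-V550L exposed for 72 h to 9 concentrations from 4-fold serial dilution (0.25% DMSO final). Viability by CCK-8, OD 450 nm after 1–2 h at 37 °C, relative to untreated and cell-free blanks; IC50 from curve fitting.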

Test [1] addresses T2, Ba/F3 ETV6-FGFR4-V550L cells (Homo sapiens, UniProt P22455, V550L, cells depend on it).
T2 construct: fused on or other part: N-terminal part of ETV6 (TEL), the oligomerising partner of the fusion; already named as the first entry; P41212 (Transcription factor ETV6)
The experiment in a line: Inhibition of cell proliferation (CCK-8), Ba/F3 ETV6-FGFR4-V550L cells. Type of test: cell-based. The conditions noted are these: 72 hours of incubation, read-out: Ba/F3 ETV6-FGFR4-V550L IC50. In a few lines: as §1

A further test has as its target FGFR4 kinase (Homo sapiens, UniProt P22455). The experiment in a line: Inhibition of FGFR4 kinase activity (ULight-labeled JAK-1 peptide, EU665/EU615 reading). Type of test: biochemical. The conditions noted are these: FGFR4 kinase 3.85 nM, ATP 100 μM, enzymatic reaction 2 hours. In a few lines:
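TR-FRET kinase assay using 3.85 nM FGFR4, 100 μM ATP and 100 nM ULight-JAK-1 (Tyr1023) peptide; 5 min enzyme–compound preincubation, then 2 h at room temperature. Compounds at 11 3-fold dilutions from 2.5 μM down to 0.042 nM, 1% DMSO. IC50 from EU665/EU615 ratio inhibition curves.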

In the next test the target is FGFR4 V550L kinase (Homo sapiens, UniProt P22455, V550L). Kind of test: Inhibition of FGFR4 V550L mutant kinase activity (ULight-labeled PolyGT, EU665/EU615 reading). The test is classed as biochemical. The conditions noted are these: FGFR4 V550L kinase 1 nM, ATP 10 μM, enzymatic reaction 2 hours. In a few lines:
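TR-FRET kinase assay: 1 nM FGFR4 V550L, 10 μM ATP, 100 nM ULight-PolyGT substrate, 2 h at room temperature after 5 min compound–enzyme preincubation, 1% DMSO. Compound tested as 11-point 3-fold dilution from 2.5 μM to 0.042 nM final. Signal as EU665/EU615 ratio; IC50 fitted from % inhibition.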

Structures are written as SMILES.

Sequence of FGFR4 kinase (P22455 22-802): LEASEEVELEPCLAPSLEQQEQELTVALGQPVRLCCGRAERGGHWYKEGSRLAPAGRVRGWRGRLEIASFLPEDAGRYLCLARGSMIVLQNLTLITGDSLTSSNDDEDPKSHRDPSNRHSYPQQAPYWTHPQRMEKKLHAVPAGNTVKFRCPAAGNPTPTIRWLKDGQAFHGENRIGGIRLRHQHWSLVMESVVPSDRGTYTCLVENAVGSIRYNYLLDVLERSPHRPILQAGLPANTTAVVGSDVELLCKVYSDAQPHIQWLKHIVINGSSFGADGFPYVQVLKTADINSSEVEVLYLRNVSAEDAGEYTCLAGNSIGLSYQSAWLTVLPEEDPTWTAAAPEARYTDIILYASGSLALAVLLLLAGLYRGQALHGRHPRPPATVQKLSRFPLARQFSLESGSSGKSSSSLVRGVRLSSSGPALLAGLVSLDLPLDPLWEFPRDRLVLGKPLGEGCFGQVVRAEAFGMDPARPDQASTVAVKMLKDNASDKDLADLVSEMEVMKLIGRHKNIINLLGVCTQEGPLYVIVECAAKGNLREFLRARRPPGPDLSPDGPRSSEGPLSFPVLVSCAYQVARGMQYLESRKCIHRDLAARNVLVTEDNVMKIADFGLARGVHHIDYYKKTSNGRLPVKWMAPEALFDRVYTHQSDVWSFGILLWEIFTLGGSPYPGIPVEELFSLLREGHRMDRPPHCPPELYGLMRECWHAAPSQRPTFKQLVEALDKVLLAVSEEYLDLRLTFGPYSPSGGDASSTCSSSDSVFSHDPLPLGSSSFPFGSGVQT
T2 sequence (P22455 whole entry V550L, the tested form may be a part): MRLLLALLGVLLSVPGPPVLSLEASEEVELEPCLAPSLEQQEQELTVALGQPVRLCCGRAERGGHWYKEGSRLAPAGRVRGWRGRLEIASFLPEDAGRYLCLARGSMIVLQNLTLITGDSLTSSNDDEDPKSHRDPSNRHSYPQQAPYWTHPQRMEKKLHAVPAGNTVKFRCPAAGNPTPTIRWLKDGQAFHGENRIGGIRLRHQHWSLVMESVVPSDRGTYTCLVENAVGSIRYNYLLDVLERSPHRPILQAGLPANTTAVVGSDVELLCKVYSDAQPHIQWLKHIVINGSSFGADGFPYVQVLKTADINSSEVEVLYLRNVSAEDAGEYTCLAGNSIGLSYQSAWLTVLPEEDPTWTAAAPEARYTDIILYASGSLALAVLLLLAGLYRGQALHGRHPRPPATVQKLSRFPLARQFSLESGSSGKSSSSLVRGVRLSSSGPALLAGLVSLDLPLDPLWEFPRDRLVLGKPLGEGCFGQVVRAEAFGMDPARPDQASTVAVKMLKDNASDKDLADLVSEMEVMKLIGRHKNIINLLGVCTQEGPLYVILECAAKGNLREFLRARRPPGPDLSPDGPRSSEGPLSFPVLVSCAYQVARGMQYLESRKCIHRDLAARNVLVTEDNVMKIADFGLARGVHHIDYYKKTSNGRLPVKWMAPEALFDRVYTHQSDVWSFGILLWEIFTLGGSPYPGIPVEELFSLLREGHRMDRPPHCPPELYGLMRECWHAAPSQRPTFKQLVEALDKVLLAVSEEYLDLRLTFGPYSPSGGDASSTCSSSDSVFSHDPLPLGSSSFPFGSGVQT
T1 sequence (P22455 whole entry, change not shown, the tested form may be a part): as the sequence (P22455 whole entry V550L, the tested form may be a part) above, with L550V counted along it
Sequence of FGFR4 V550L kinase (P22455 22-802 V550L): as the sequence (P22455 22-802) above, with V529L counted along it

Take `C=CC(=O)Nc1cc(N2CCN(CC)CC2)ccc1Nc1ncc(C#N)c(Nc2ccc(CCC)cc2OC(C)C)n1` [Example 38, N-(2-((5-cyano-4-((2-isopropoxy-4-propylphenyl)amino)pyrimidin-2-yl)amino)-5-(4-ethylpiperazin-1-yl)phenyl) acrylamide]: the GI50 (at Ba/F3 ETV6-FGFR4 cells; in test [1]) was 10 to 50 nM each time. The half-inhibitory concentration (IC50) at FGFR4 kinase and against FGFR4 V550L kinase was 50 to 100 nM each time.
`C=CC(=O)Nc1cc(N2CCC(N3CCN(C)CC3)CC2)ccc1Nc1ncc(C#N)c(Nc2ccc(F)cc2OC(C)C)n1` [Example 39, N-(2-((5-cyano-4-((4-fluoro-2-isopropoxyphenyl)amino)pyrimidin-2-yl)amino)-5-(4-(4-methylpiperazin-1-yl)piperidin-1-yl)phenyl) acrylamide]: the GI50 (at Ba/F3 ETV6-FGFR4 cells; in test [1]) was at most 10 nM throughout. For the same compound, the IC50 against FGFR4 kinase and against FGFR4 V550L kinase was at most 10 nM throughout.
Consider `C=CC(=O)Nc1cc(N2CCC(N3CCN(C)CC3)CC2)c(F)cc1Nc1ncc(C#N)c(Nc2ccc(F)cc2OC(C)C)n1` [Example 40, N-(2-((5-cyano-4-((4-fluoro-2-isopropoxyphenyl)amino)pyrimidin-2-yl)amino)-4-fluoro-5-(4-(4-methylpiperazin-1-yl)piperidin-1-yl)phenyl) acrylamide], for which the GI50 (at Ba/F3 ETV6-FGFR4 cells; in test [1]) was at most 10 nM in each case. Moreover, the IC50 at FGFR4 kinase and against FGFR4 V550L kinase was 10 to 50 nM throughout.
As to `C=CC(=O)Nc1cc(N2CCC(N3CCN(C)CC3)CC2)ccc1Nc1ncc(C#N)c(Nc2ccc(C(N)=O)cc2OC(C)C)n1` [Example 41, 4-((2-((2-acrylamido-4-(4-(4-methylpiperazin-1-yl)piperidin-1-yl)phenyl)amino)-5-cyanopyrimidin-4-yl)amino)-3-isopropoxybenzamide], the GI50 (at Ba/F3 ETV6-FGFR4 cells; in test [1]) was 100 to 1000 nM in each case. For the same compound, the IC50 (commonly the concentration that inhibits the measured activity by half) is 10 to 50 nM against FGFR4 kinase and at most 10 nM on FGFR4 V550L kinase.
As for `C=CC(=O)Nc1cc(N2CCC(N3CCC(C)(O)CC3)CC2)ccc1Nc1ncc(C#N)c(Nc2ccccc2OC(C)C)n1` [Example 42, N-(2-((5-cyano-4-((2-isopropoxyphenyl)amino)pyrimidin-2-yl)amino)-5-(4-hydroxy-4-methyl-[1,4′-bipiperidin]-1′-yl)phenyl) acrylamide], the GI50 (on Ba/F3 ETV6-FGFR4 cells; in test [1]) was at most 10 nM each time. Further, the half-inhibitory concentration (IC50) against FGFR4 kinase and against FGFR4 V550L kinase was at most 10 nM in each case.
As to `C=CC(=O)Nc1cc(N2CCC(N3CCN(C)C(=O)C3)CC2)ccc1Nc1ncc(C#N)c(Nc2ccccc2OC(C)C)n1` [Example 43, N-(2-((5-cyano-4-((2-isopropoxyphenyl)amino)pyrimidin-2-yl)amino)-5-(4-(4-methyl-3-oxopiperazin-1-yl)piperidin-1-yl)phenyl) acrylamide], the GI50 (on Ba/F3 ETV6-FGFR4 cells; in test [1]) was at most 10 nM in each case. For the same compound, the IC50 at FGFR4 kinase and on FGFR4 V550L kinase was 10 to 50 nM each time.
For the compound `C=CC(=O)Nc1cc(N2CCC(N3CCN(C)C(=O)C3)CC2)c(F)cc1Nc1ncc(C#N)c(Nc2ccccc2OC(C)C)n1` [Example 44, N-(2-((5-cyano-4-((2-isopropoxyphenyl)amino)pyrimidin-2-yl)amino)-4-fluoro-5-(4-(4-methyl-3-oxopiperazin-1-yl)piperidin-1-yl)phenyl) acrylamide], the GI50 (at Ba/F3 ETV6-FGFR4 cells; in test [1]) was at most 10 nM in each case. For the same compound, the IC50 at FGFR4 kinase and against FGFR4 V550L kinase was 10 to 50 nM in each case.
As for `C=CC(=O)Nc1cc(N2CCC(N3CCN(C)C(=O)C3)CC2)ccc1Nc1ncc(C#N)c(Nc2ccc(F)cc2OC(C)C)n1` [Example 45, N-(2-((5-cyano-4-((4-fluoro-2-isopropoxyphenyl)amino)pyrimidin-2-yl)amino)-5-(4-(4-methyl-3-oxopiperazin-1-yl)piperidin-1-yl)phenyl) acrylamide], the GI50 (at Ba/F3 ETV6-FGFR4 cells; in test [1]) was at most 10 nM each time. Also, the 50% inhibitory concentration (IC50) on FGFR4 kinase and against FGFR4 V550L kinase was 10 to 50 nM each time.
On to `C=CC(=O)Nc1cc(N2CCC(N3CCN(C)CC3=O)CC2)ccc1Nc1ncc(C#N)c(Nc2ccccc2OC(C)C)n1` [Example 46, N-(2-((5-cyano-4-((2-isopropoxyphenyl)amino)pyrimidin-2-yl)amino)-5-(4-(4-methyl-2-oxopiperazin-1-yl)piperidin-1-yl)phenyl) acrylamide], for which the GI50 (on Ba/F3 ETV6-FGFR4 cells; in test [1]) was at most 10 nM in each case. In addition, the IC50 against FGFR4 kinase and against FGFR4 V550L kinase was 10 to 50 nM each time.
Consider `C=CC(=O)Nc1cc(N2CCC(N3CCN(C)CC3=O)CC2)ccc1Nc1ncc(C#N)c(Nc2ccc(F)cc2OC(C)C)n1` [Example 47, N-(2-((5-cyano-4-((4-fluoro-2-isopropoxyphenyl)amino)pyrimidin-2-yl)amino)-5-(4-(4-methyl-2-oxopiperazin-1-yl)piperidin-1-yl)phenyl) acrylamide], for which the GI50 (at Ba/F3 ETV6-FGFR4 cells; in test [1]) was at most 10 nM in each case. Further, the IC50 on FGFR4 kinase and at FGFR4 V550L kinase was 10 to 50 nM in each case.
In the case of `C=CC(=O)Nc1cc(N2CCC(N3CCN(C)CC3=O)CC2)c(F)cc1Nc1ncc(C#N)c(Nc2ccccc2OC(C)C)n1` [Example 48, N-(2-((5-cyano-4-((2-isopropoxyphenyl)amino)pyrimidin-2-yl)amino)-4-fluoro-5-(4-(4-methyl-2-oxopiperazin-1-yl)piperidin-1-yl)phenyl) acrylamide], the GI50 (on Ba/F3 ETV6-FGFR4 cells; in test [1]) was at most 10 nM throughout. The IC50 against FGFR4 kinase and against FGFR4 V550L kinase was 10 to 50 nM throughout.
With `C=CC(=O)Nc1cc(N2CCN(C3CCN(C)CC3)CC2)ccc1Nc1ncc(C#N)c(Nc2ccccc2OC(C)C)n1` [Example 49, N-(2-((5-cyano-4-((2-isopropoxyphenyl)amino)pyrimidin-2-yl)amino)-5-(4-(1-methylpiperidin-4-yl)piperazin-1-yl)phenyl) acrylamide], the GI50 (on Ba/F3 ETV6-FGFR4 cells; in test [1]) was at most 10 nM each time. The IC50 on FGFR4 kinase and against FGFR4 V550L kinase was at most 10 nM in each case.
On to `C=CC(=O)Nc1cc(N2CCC(N3CCN(C(C)=O)CC3)CC2)ccc1Nc1ncc(C#N)c(Nc2ccccc2OC(C)C)n1` [Example 50, N-(5-(4-(4-acetylpiperazin-1-yl)piperidin-1-yl)-2-((5-cyano-4-((2-isopropoxyphenyl)amino)pyrimidin-2-yl)amino)phenyl) acrylamide], for which the GI50 (on Ba/F3 ETV6-FGFR4 cells; in test [1]) was at most 10 nM in each case. The results for the half-maximal inhibitory concentration (IC50) against FGFR4 kinase and against FGFR4 V550L kinase were 10 to 50 nM and at most 10 nM, respectively.
In the case of `C=CC(=O)Nc1cc(N2CCC(N3CCN(S(C)(=O)=O)CC3)CC2)ccc1Nc1ncc(C#N)c(Nc2ccccc2OC(C)C)n1` [Example 51, N-(2-((5-cyano-4-((2-isopropoxyphenyl)amino)pyrimidin-2-yl)amino)-5-(4-(4-(methylsulfonyl)piperazin-1-yl)piperidin-1-yl)phenyl) acrylamide], the GI50 (on Ba/F3 ETV6-FGFR4 cells; in test [1]) was at most 10 nM each time. Moreover, the IC50 against FGFR4 kinase was in the range of 100 to 1000 nM; against FGFR4 V550L kinase, 10 to 50 nM.
As to `C=CC(=O)Nc1cc(N2CCC(N3CCN(C)CC3)CC2)ccc1Nc1ncc(C#N)c(Nc2ccc(C(=O)O)cc2OC(C)C)n1` [Example 52, 4-((2-((2-acrylamido-4-(4-(4-methylpiperazin-1-yl)piperidin-1-yl)phenyl)amino)-5-cyanopyrimidin-4-yl)amino)-3-isopropoxybenzoic acid], the GI50 (on Ba/F3 ETV6-FGFR4 cells; in test [1]) was 100 to 1000 nM in each case. The IC50 against FGFR4 kinase and against FGFR4 V550L kinase was at most 10 nM each time.
Consider `C=CC(=O)Nc1cc(N2CCC(N3CCN(C)CC3)CC2)c(OC)cc1Nc1ncc(C#N)c(Nc2ccccc2OC(C)C)n1` [Example 53, N-(2-((5-cyano-4-((2-isopropoxyphenyl)amino)pyrimidin-2-yl)amino)-4-methoxy-5-(4-(4-methylpiperazin-1-yl)piperidin-1-yl)phenyl) acrylamide], for which the GI50 (at Ba/F3 ETV6-FGFR4 cells; in test [1]) was at most 10 nM in each case. Further, the half-maximal inhibitory concentration (IC50) is 50 to 100 nM against FGFR4 kinase and at most 10 nM on FGFR4 V550L kinase.
For the compound `C=CC(=O)Nc1cc(N(C)CCN(C)C)ccc1Nc1ncc(C#N)c(Nc2ccccc2OC(C)C)n1` [Example 54], the GI50 (on Ba/F3 ETV6-FGFR4 cells; in test [1]) was at most 10 nM each time. Also, the IC50 was 10 to 50 nM against FGFR4 kinase and at most 10 nM against FGFR4 V550L kinase.
`C=CC(=O)Nc1cc(N(C)CCN(C)C)c(OC)cc1Nc1ncc(C#N)c(Nc2ccccc2OC(C)C)n1` [Example 55, N-(2-((5-cyano-4-((2-isopropoxyphenyl)amino)pyrimidin-2-yl)amino)-5-((2-(dimethylamino)ethyl)(methyl)amino)-4-methoxyphenyl) acrylamide]: the GI50 (on Ba/F3 ETV6-FGFR4 cells; in test [1]) was at most 10 nM in each case. The figures for the IC50 at FGFR4 kinase and on FGFR4 V550L kinase were 10 to 50 nM and at most 10 nM, respectively.
